Experimental data taken from patent US9145375B2, “Quinazolinone compounds” (PRANA BIOTECHNOLOGY LIMITED, priority 2008, dated 2015).
Values joined by “and” are separate entries in the source; they are usually repeats but may differ in a detail not shown here. Equal values may be shown once.

Tests used:
[1] = system: MPTP induced cell death in the SN; test: Parkinson's disease in vivo: MPTP model; set-up: species or system mouse; conditions: MPTP mice; for Behaviour Pole Test, % (SSV = 0%) / Behaviour Pole Test, value ± SD: 30 mg/kg; for SN cell counts % of SSV / SN cell counts (cells +/− SD): test drug 30 mg/kg daily by oral gavage, several experiments
Description: Parkinson's Disease In Vivo Technique: MPTP
MPTP (1-methyl 4-phenyl 1,2,3,6-tetrahydropyridine) is a chemical that is related to the opioid analgesic drugs. MPTP causes Parkinsonian side-effects. This occurs when MPTP is metabolized into MPP+, which kills neurons in a part of the brain called the substantia nigra. MPP+ interferes with mitochondria metabolism which leads to cell death and causes the build up of free radicals, toxic molecules that contribute further to cell destruction. MPTP has abilities to effect neuronal death in dopaminergic cells. Such effects lead to gross depletion of dopaminergic neurons which has severe implications on cortical control of complex movements.
General Experimental Design
Determining that MPTP Causes Continued Cell Death
Control (non tg) and transgenic mice receive five intraperitoneal injections of MPTP-HCl (23 gauge needle, 20 mg\kg of free base; Sigma, St. Louis, Mo., USA) dissolved in sterile 0.9% saline at 2-h interval in 1 day. Control animals receive five intraperitoneal injections of 0.9% saline. […] 20 C57BL6, 10 control and 10 hA53T tg are used to establish the precise dose of toxin at 2 weeks. Animals are allowed to recover for 1 week, 2 weeks, 1 month, 12, months and 18 months. The animals are killed and the brains removed for histological (stereological) and biochemical analysis.
Determining Whether Test Drug Reduces MPTP Induced Cell Death
Animals are treated as described above. They are treated with test drug 2 days after MPTP injection until death. Test drug is given by oral gavage at a daily dosage of 30 mg/kg. The time of killing the animals is dependant on the analysis of Experiment 1, normally one month or less.
Drugs are administered by oral gavage, at a daily dosage of 30 mg/kg.
Mice are assessed at prior to killing the mice for histological analysis.
Motor coordination and strength are assessed using the rotarod. The rotarod consists of a plastic rotating rod of 3.6 cm axial diameter partitioned by metal disks into five sections to allow the testing of multiple mice simultaneously. Mice are trained on two sessions where the rotation speed is ramped from 0-30 rpm over 5 min and one training session where rotation is a constant 16 rpm for 5 min. Within two days of training, animals are formally assessed on the rotarod rotating at 16 rpm for a maximum of 3 min: the time to fall on this single test is the recorded data point.
The pole is a 700 mm long, 5 mm diameter, wooden rod. The rod is supported at its base and held vertical. The total walking distance for the mice is 550 mm. The time taken for the mouse to descend the pole is measured with a maximum time of 120 s. If a mouse falls, the time is scored as 120 s.

Fe-DA = test: H2O2 assay, Fe-DA (% cf. Fe 0.4 μM/DA 50 μM); format: biochemical
Protocol: (§1) This fluoresence assay evaluates the ability of a test compound to inhibit the generation of hydrogen peroxide (H2O2) by iron in the presence of a reducing substrate such as ascorbic acid. In the assay, iron in the form of FeCl3 or copper is allowed to react with ascorbic acid by incubating for 1 hr at 37° C. in the presence of the fluorescing compound DCF and horseradish peroxidase. H2O2 generated by the system is assessed by measuring the specific fluorescence profile at the excitation and emission wavelengths of 485 and 530 nm respectively, in the presence of increasing concentrations of test compound. Test compounds are ranked according to their capacity to inhibit H2O2 generated by the system where lower values reflect greater ability to inhibit H2O2 production.

[2] = system: generation of hydrogen peroxide (H2O2) by iron; test: H2O2 Inhibition Assay; format: biochemical
Protocol: Assay 1. H2O2 Inhibition Assay.
as §1

M17 = test: Cytotox (% viable), cells marked M17; format: cell-based, human; conditions: repeat values given
[3] = system: M17 human neuroblastoma cells; test: Metal Uptake Assay (metal transport); format: cell-based; conditions: 10 μM Cu + 10 μM compound, 5 hours
Protocol: Assay 3. Metal Uptake Assay
M17 human neuroblastoma cells are plated out on 6 well plates and left overnight. Enough cells are added to give approximately 70% confluent the following day of the experiment. Test compounds are added to media and mixed with equi-molar amounts of CuCl2 solution. A=10 μM Cu+10 μM MPAC; B=10 μM Cu+10 μM MPAC.
Cells are incubated in 1 ml of media/MPAC/Cu mix for 5 hours at 37° C. At the end of the incubation the media is removed with a vacuum aspirator and 1 ml of PBS added to dislodge the cells. Cells are then put into Eppendorf tubes and pelleted. The PBS is removed and the remaining cell pellets are frozen at −20 C.
The cell pellets are prepared as follows:
Received cell pellets of similar levels in 1.5 ml microfuge tubes. Added 50 μl of concentrated Nitric Acid (Aristar, BDH) to each cell pellet and allowed them to digest over night. Heated the samples for 20 min at 90° C. to complete the digestion. The volume of each sample was reduced to ˜45 ul after digestion. Added 1 ml of the 1% Nitric Acid diluent to each sample. (referred to as the “preparation solution” samples).
Measurements were made using a Varian UltraMass ICPMS instrument under operating conditions suitable for routine multi-element analysis.
The instrument was calibrated using Blank, 10, 50 and 100 ppb of a certified multi-element ICPMS standard solution (ICP-MS—CAI2-1, Accustandard) for Fe, Cu and Zn in 1% nitric acid. Used an certified internal standard solution containing 100 ppb Yttrium (Y 89) as an internal control (ICP-MS—IS-MIX1-1, Accustandard).

Mouse Plasma Conc. = format: in vivo; conditions: given as 'Up to'
Neuronal cortical cells = test: Cytotox (% viable); Primary Neuronal Cells Neurotoxicity Assay; format: cell-based, mouse; conditions: cell type not given, repeat values given
Protocol: Assay 2 (a). Primary Neuronal Cells Neurotoxicity Assays
Cortical cultures were prepared as previously described (White et al., 1998). Embryonic day 14 BL6Jx129sv mouse cortices were removed, dissected free of meninges and dissociated in 0.025% (wt/vol) trypsin. Dissociated cells were plated in 48 well culture plates at a density of 2×10^6 cells/mL in MEM with 25% (vol/vol) FCS and 5% (vol/vol) HS and incubated at 37° C., 2 hrs. Media was then replaced with Neurobasal media (Invitrogen Life Technologies) and B27 supplements (Invitrogen Life Technologies). Cultures were maintained at 37° C. in 5% CO2. Prior to experimentation, the culture medium was replaced with Neurobasal media and B27 minus antioxidants (Invitrogen Life Technologies).
Neuronal cortical cells were cultured for five days as per Assay 2 in NB media and B27 supplement.
On day six the test compounds were added to the neuronal cell cultures in NB media and B27 supplement minus antioxidants.
Test compounds were dissolved in 100% DMSO to a concentration of 2.5 mM (10 mM if excess compound was weighed out per vial—then diluted to 2.5 mM). 2.5 mM stock solution was serially diluted 1 in 10 to give working solutions of 250 uM, 25 uM, 2.5 uM. Test compounds were not added directly to cells, instead they were added to a 48 well ‘Drug Plate’ as comprised below: • Preparation of “Drug Plate”:
Well 1: 576 ul NB+B27 (no antioxidant)*+24 ul 2.5 uM test compound
Well 2: 576 ul NB+B27 (no antioxidant)+24 μl 25 uM test compound
Well 3: 576 ul NB+B27 (no antioxidant)+24 ul 250 uM test compound
Well 4: 576 ul NB+B27 (no antioxidant)+24 ul 2.5 uM test compound
Well 5: 576 ul NB+B27 (no antioxidant)+24 ul 25 uM test compound
Well 6: 576 ul NB+B27 (no antioxidant)+24 ul 250 uM test compound
Well 7: 576 ul NB+B27 (no antioxidant)+24 ul test compound diluent**
Well 8: 600 ul NB+B27 (no antioxidant)
The Drug Plate was incubated at 37° C. for 15 mins. 200 ul of each well was added in triplicate to the corresponding cell plate. The cell plate was incubated at 37° C., for 4 days, (2 compounds are tested on each plate of cells).
*NB media and B27 (no antioxidants),
**PBT diluent 10% DMSO in NB+1327 (no antioxidants)
On completion of the assay, 1/10 volume MTS was added per well of plate (ie 25 ul/250 ul). The plates were incubated at 37° C. for 2 hrs, and then absorbance was read at 560 nm.

SMILES | Behaviour Pole Test, % (SSV = 0%) [1] | Behaviour Pole Test, value ± SD [1] | SN cell counts % of SSV [1] | SN cell counts (cells +/− SD) [1] | Fe-DA % cf. Fe 0.4 μM/DA 50 μM (Fe-DA) | IC50 [2] | Cytotox (% viable at 1 uM) (M17) | Cytotox (% viable at 10 uM) (M17) | Metal transport [3] | Mouse Plasma Conc. (Mouse Plasma Conc.) | Fe-DA % cf. Fe/DA (Fe-DA; 2 μM Fe) | Cytotox (% viable at 1 uM) (Neuronal cortical cells) | Cytotox (% viable at 10 uM) (Neuronal cortical cells)
CCCn1c(CNC)nc2c(O)c(Cl)cc(Cl)c2c1=O [Compound F4095, 5,7-Dichloro-8-hydroxy-2-((methylamino)methyl)-3-propylquinazolin-4(3H)-one] | 24.25% | (2.21 ± 0.89) | 12.15% | (2436.00 ± 603.06) cells |  |  |  |  |  |  |  |  | 
CC(C)Cn1c(CN(C)C)nc2c(O)c(Cl)cc(Cl)c2c1=O.Cl [Compound F4271, 5,7-Dichloro-2-((dimethylamino)methyl)-8-hydroxy-3-isobutylquinazolin-4(3H)-one] |  |  |  |  | 57% | 170 nM | 104.4% and 102.3% | 61.5% and 52.5% | Metal transport 27.8% |  |  |  | 
CCN1CCN(Cc2nc3c(O)c(Cl)cc(Cl)c3c(=O)n2CC2CC2)CC1 [Compound F4383] |  |  |  |  | 81% | 1510 nM | 118.5% and 102.3% | 103.4% and 92.7% | Metal transport 8% |  |  |  | 
O=c1c2c(Cl)cc(Cl)c(O)c2nc(CN2CCOCC2)n1CC1CC1 [Compound F4384] |  |  |  |  |  |  | 116.3% and 106.4% | 86.5% and 73.0% | Metal transport 17% |  |  |  | 
CCN(CC)Cc1nc2c(O)c(Cl)cc(Cl)c2c(=O)n1CC [Compound F4386] |  |  |  |  | 77% | 330 nM | 101.8% and 99.8% and 101.4% and 107.9% | 105.2% and 91.9% and 111.7% and 106.8% | Metal transport 13% | ≤ 3294.1 ng/mL |  |  | 
O=c1c2c(Cl)cc(Cl)c(O)c2nc(CN2CCCCC2)n1CC1CC1 [Compound F4391] | 9.96% | (2.63 ± 1.10) | 25.18% | (2719.11 ± 255.12) cells |  | 590 nM | 87.4% and 95.9% and 96.0% | 57.5% and 70.5% and 66.5% | Metal transport 34% | ≤ 17255.9 ng/mL | 97% |  | 
CCN(CC)Cc1nc2c(O)c(Cl)cc(Cl)c2c(=O)n1C [Compound F4473] |  |  |  |  | 62% | 600 nM |  |  | Metal transport 9% | ≤ 1356.2 ng/mL |  | 97.0% and 99.0% | 91.6% and 106.1%
CCn1c(CN2CCCCC2)nc2c(O)c(Cl)cc(Cl)c2c1=O [Compound F4483] |  |  |  |  | 62% | 330 nM |  |  | Metal transport 22% | ≤ 1585.2 ng/mL |  | 93.4% and 105.5% | 99.7% and 72.3%
